Values belong to the molecule of their own block, whether it stands above or below them.
Legend:
steroid sulfatase = target: T1, steroid sulfatase (Homo sapiens, UniProt P08842); assay: Steroid sulfatase (STS) inhibition assay in JEG-3 cells ([6,7-3H] estrone sulfate); assay type: cell-based; conditions: 1 hour at 37° C., duplicate
T1 construct: JEG-3 which constitutively expresses high amount of aromatase and steroid sulfatase; endogenous in cells; host or cells: JEG-3
T1 sequence (P08842 22-583): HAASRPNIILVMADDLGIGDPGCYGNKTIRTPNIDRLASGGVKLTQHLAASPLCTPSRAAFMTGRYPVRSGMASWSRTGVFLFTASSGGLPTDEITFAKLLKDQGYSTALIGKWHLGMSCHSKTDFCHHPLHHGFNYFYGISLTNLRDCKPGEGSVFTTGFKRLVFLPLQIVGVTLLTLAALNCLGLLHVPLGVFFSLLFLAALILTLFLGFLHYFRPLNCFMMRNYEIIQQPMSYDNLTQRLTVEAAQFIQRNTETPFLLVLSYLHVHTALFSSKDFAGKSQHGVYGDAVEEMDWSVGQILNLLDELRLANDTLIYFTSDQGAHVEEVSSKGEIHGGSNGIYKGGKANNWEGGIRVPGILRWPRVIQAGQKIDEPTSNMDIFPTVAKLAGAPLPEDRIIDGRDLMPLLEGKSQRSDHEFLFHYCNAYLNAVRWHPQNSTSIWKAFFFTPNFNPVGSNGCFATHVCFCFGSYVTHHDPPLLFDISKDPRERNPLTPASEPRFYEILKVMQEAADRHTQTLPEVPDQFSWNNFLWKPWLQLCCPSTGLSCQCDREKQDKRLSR
Method: (§1) Aromatase and steroid sulfatase enzymes inhibitions were evaluated in the human chorionic carcinoma cell line JEG-3 which constitutively expresses high amount of aromatase and steroid sulfatase.
For STS assay, JEG-3 cells were seeded into 24-well culture plates at 150,000 cells/ml/well and maintained in MEM containing supplements overnight. When reaching 80% confluent, the cells were washed once with serum-free MEM, loaded with 1 ml of substrate mix containing [6,7-3H] Estrone sulfate (E1S, 0.6 μCi/ml) and [4-14C] Estrone (E1, 4 nCi/ml) in the presence of compounds in a concentration series, and incubated for 1 hour at 37° C. The product [3H]E1 was separated from E1S by toluene partition using [4-14C]E1 to monitor extraction procedural losses, and the toluene fraction radioactivity was measured by a MicroBeta scintillation counter.
(§2) Experiments are performed in duplicate. The inhibitory concentration of 50% of the enzymatic activity is calculated.

aromatase = target: T2, aromatase (Homo sapiens, UniProt P11511); assay: Aromatase inhibition assay in JEG-3 cells ([1β-3H] androstenedione, tritiated water release); assay type: cell-based; conditions: 1.25 hour incubation, duplicate
T2 construct: JEG-3 which constitutively expresses high amount of aromatase and steroid sulfatase; endogenous in cells; host or cells: JEG-3
T2 sequence (P11511 1-503): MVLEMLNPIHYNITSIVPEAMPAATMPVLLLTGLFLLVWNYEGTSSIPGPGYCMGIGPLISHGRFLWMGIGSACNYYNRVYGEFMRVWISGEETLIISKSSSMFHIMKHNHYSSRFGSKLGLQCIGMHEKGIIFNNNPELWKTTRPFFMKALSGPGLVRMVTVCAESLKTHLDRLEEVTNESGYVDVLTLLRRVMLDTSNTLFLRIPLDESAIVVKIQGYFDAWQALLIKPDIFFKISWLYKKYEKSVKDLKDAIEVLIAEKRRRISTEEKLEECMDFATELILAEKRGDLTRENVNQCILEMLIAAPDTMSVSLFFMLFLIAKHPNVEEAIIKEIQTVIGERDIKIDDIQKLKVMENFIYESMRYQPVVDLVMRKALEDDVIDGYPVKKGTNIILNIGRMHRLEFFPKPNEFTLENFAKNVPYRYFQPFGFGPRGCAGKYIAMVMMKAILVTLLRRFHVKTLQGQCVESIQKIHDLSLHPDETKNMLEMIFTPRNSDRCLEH
Method: as §1
For aromatase inhibition assay, JEG-3 cells were seeded into 96-well plates at 35,000 cells/well and maintained in MEM containing supplements. When reaching 80% confluent, the cells were washed once with serum-free MEM, incubated with [1β-^3H] androstenedione (A4, 0.2 μCi/ml) for 1.25 hour in the presence of the test substances added in a concentration series. The product, tritiated water (^3H2O), was separated using 2.5% (w/v) dextran-coated charcoal at 4-8° C. for 2 hours. The supernatant radioactivity was measured by a MicroBeta scintillation counter.
as §2

SMILES: N#Cc1ccc(Nn2nnc3cccnc32)cc1-c1ccc(OS(N)(=O)=O)cc1 [Example 35, 5′-(3H-[1,2,3]Triazolo[4,5-b]pyridin-3-ylamino)-2′-cyano-[1,1′-biphenyl]-4-yl sulfamate]
- IC50 (steroid sulfatase): 29.4 nM
- IC50 (aromatase): 5.1 nM

SMILES: CN(c1ccc(C#N)c(-c2ccc(OS(N)(=O)=O)cn2)c1)n1cnc2ccccc21 [Example 37, 6-(5-((1H-Benzo[d]imidazol-1-yl)(methyl)amino)-2-cyanophenyl)pyridin-3-yl sulfamate]
- IC50 (steroid sulfatase): 41.8 nM
- IC50 (aromatase): 2.4 nM

SMILES: N#Cc1ncc(Nn2cnc3ccccc32)cc1-c1ccc(OS(N)(=O)=O)cc1 [Example 38, 4-(5-(1H-Benzo[d]imidazol-1-ylamino)-2-cyanopyridin-3-yl)phenyl sulfamate]
- IC50 (steroid sulfatase): 19.1 nM
- IC50 (aromatase): 2.7 nM

SMILES: CN(c1cnc(C#N)c(-c2ccc(OS(N)(=O)=O)cc2)c1)n1cnc2ccccc21 [Example 39, 4-(5-((1H-Benzo[d]imidazol-1-yl)(methyl)amino)-2-cyanopyridin-3-yl)phenyl sulfamate]
- IC50 (steroid sulfatase): > 60 nM
- IC50 (aromatase): 1.5 nM

SMILES: N#Cc1ccc(Nn2cnc3ccccc32)cc1-c1ccc(OS(N)(=O)=O)cn1 [Example 41, 6-(5-(1H-Benzo[d]imidazol-1-ylamino)-2-cyanophenyl)pyridin-3-yl sulfamate]
- IC50 (steroid sulfatase): 9.3 nM
- IC50 (aromatase): 2 nM

SMILES: N#Cc1ccc(Cn2cnc3ccccc32)nc1-c1ccc(OS(N)(=O)=O)cn1 [Example 42, 6′-((1H-Benzo[d]imidazol-1-yl)methyl)-3′-cyano-[2,2′-bipyridin]-5-yl sulfamate]
- IC50 (steroid sulfatase): > 60 nM
- IC50 (aromatase): 41.9 nM

SMILES: N#Cc1ncc(Nn2cnc3cccnc32)cc1-c1ccc(OS(N)(=O)=O)cc1 [Example 43, 4-(5-(3H-Imidazo[4,5-b]pyridin-3-ylamino)-2-cyanopyridin-3-yl)phenyl sulfamate]
- IC50 (steroid sulfatase): > 60 nM
- IC50 (aromatase): 11.8 nM

SMILES: N#Cc1ncc(Cn2cnc3cc(F)c(F)cc32)cc1-c1ccc(OS(N)(=O)=O)cc1 [Example 51, 4-(2-Cyano-5-((5,6-difluoro-1H-benzo[d]imidazol-1-yl)methyl)pyridin-3-yl)phenyl sulfamate]
- IC50 (steroid sulfatase): 15.5 nM
- IC50 (aromatase): 2.2 nM

SMILES: N#Cc1cnc(Cn2cnc3cc(F)c(F)cc32)nc1-c1ccc(OS(N)(=O)=O)cc1 [Example 52, 4-(5-Cyano-2-((5,6-difluoro-1H-benzo[d]imidazol-1-yl)methyl)pyrimidin-4-yl)phenyl sulfamate]
- IC50 (steroid sulfatase): 5.4 nM
- IC50 (aromatase): 2.9 nM

Results, then the molecule that gave them:

- IC50 (steroid sulfatase): 35.7 nM
- IC50 (aromatase): 8.4 nM
SMILES: CN(c1cnc(C#N)c(-c2ccc(OS(N)(=O)=O)cc2)n1)n1cnc2ccccc21 [Example 34, 4-(6-((1H-Benzo[d]imidazol-1-yl)(methyl)amino)-3-cyanopyrazin-2-yl)phenyl sulfamate]

- IC50 (steroid sulfatase): 18.8 nM
- IC50 (aromatase): > 60 nM
SMILES: N#Cc1ncc(Nn2cnc3cccnc32)nc1-c1ccc(OS(N)(=O)=O)cc1 [Example 40, 4-(6-(3H-Imidazo[4,5-b]pyridin-3-ylamino)-3-cyanopyrazin-2-yl)phenyl sulfamate]

- IC50 (steroid sulfatase): > 60 nM
- IC50 (aromatase): 5.8 nM
SMILES: CN(c1cnc(C#N)c(-c2ccc(OS(N)(=O)=O)cc2)n1)n1cnc2cccnc21 [Example 44, 4-(6-((3H-Imidazo[4,5-b]pyridin-3-yl)(methyl)amino)-3-cyanopyrazin-2-yl)phenyl sulfamate]

- IC50 (steroid sulfatase): > 60 nM
- IC50 (aromatase): 2.1 nM
SMILES: CN(c1cnc(C#N)c(-c2ccc(OS(N)(=O)=O)cc2)c1)n1cnc2cccnc21 [Example 45, 4-(5-((3H-Imidazo[4,5-b]pyridin-3-yl)(methyl)amino)-2-cyanopyridin-3-yl)phenyl sulfamate]

- IC50 (steroid sulfatase): 39.5 nM
- IC50 (aromatase): 21.7 nM
SMILES: N#Cc1ccc(Nn2cnc3cccnc32)nc1-c1ccc(OS(N)(=O)=O)cc1 [Example 46, 4-(6-(3H-Imidazo[4,5-b]pyridin-3-ylamino)-3-cyanopyridin-2-yl)phenyl sulfamate]

- IC50 (steroid sulfatase): 44.1 nM
- IC50 (aromatase): 56.1 nM
SMILES: N#Cc1cnc(Nn2cnc3cccnc32)nc1-c1ccc(OS(N)(=O)=O)cc1 [Example 47, 4-(2-(3H-Imidazo[4,5-b]pyridin-3-ylamino)-5-cyanopyrimidin-4-yl)phenyl sulfamate]

- IC50 (steroid sulfatase): > 60 nM
- IC50 (aromatase): 5.8 nM
SMILES: CN(c1ncc(C#N)c(-c2ccc(OS(N)(=O)=O)cc2)n1)n1cnc2cccnc21 [Example 48, 4-(2-((3H-Imidazo[4,5-b]pyridin-3-yl)(methyl)amino)-5-cyanopyrimidin-4-yl)phenyl sulfamate]

- IC50 (steroid sulfatase): > 60 nM
- IC50 (aromatase): 3.7 nM
SMILES: CN(c1ccc(C#N)c(-c2ccc(OS(N)(=O)=O)cc2)n1)n1cnc2cccnc21 [Example 49, 4-(6-((3H-Imidazo[4,5-b]pyridin-3-yl)(methyl)amino)-3-cyanopyridin-2-yl)phenyl sulfamate]

- IC50 (steroid sulfatase): > 60 nM
- IC50 (aromatase): 16.3 nM
SMILES: N#Cc1ncc(Cn2cnc3cccnc32)cc1-c1ccc(OS(N)(=O)=O)cc1 [Example 50, 4-(5-((3H-imidazo[4,5-b]pyridin-3-yl)methyl)-2-cyanopyridin-3-yl)phenyl sulfamate]

— US9682941B2, “Substituted biphenyl analogues as dual inhibitors of aromatase and sulfatase” (ESTRYX PHARMA LIMITED, priority 2013, dated 2017)
